Assay results taken from ChEMBL document CHEMBL4507305, “Data for DCP probe TP-024” (2021).

Assays:
[1] = tested on: Epidermal growth factor receptor (Homo sapiens), P00533 [L861Q]; conditions: Compound concentration 1000.0 nM
[2] = molecular target: 5-hydroxytryptamine receptor 3A (Homo sapiens) (UniProt P46098); conditions: Compound concentration 10.0 uM
[3] = molecular target: Peripheral plasma membrane protein CASK (Homo sapiens) (UniProt O14936); conditions: Compound concentration 1000.0 nM
[4] = molecular target: Ephrin type-A receptor 5 (Homo sapiens) (UniProt P54756); conditions: Compound concentration 1000.0 nM
[5] = tested on: Phosphatidylinositol 4,5-bisphosphate 3-kinase catalytic subunit alpha isoform (Homo sapiens), P42336 [E542K]; conditions: Compound concentration 1000.0 nM
[6] = molecular target: Tyrosine-protein kinase receptor UFO (Homo sapiens) (UniProt P30530); conditions: Compound concentration 1000.0 nM
[7] = molecular target: Homeodomain-interacting protein kinase 1 (Homo sapiens) (UniProt Q86Z02); conditions: Compound concentration 1000.0 nM
[8] = molecular target: Death-associated protein kinase 3 (Homo sapiens) (UniProt O43293); conditions: Compound concentration 1000.0 nM
[9] = tested on: Epidermal growth factor receptor (Homo sapiens), P00533 [L858R]; conditions: Compound concentration 1000.0 nM
[10] = molecular target: Serine/threonine-protein kinase PLK4 (Homo sapiens) (UniProt O00444); conditions: Compound concentration 1000.0 nM
[11] = molecular target: Non-receptor tyrosine-protein kinase TYK2 (Homo sapiens) (UniProt P29597); conditions: Compound concentration 1000.0 nM
[12] = molecular target: Mast/stem cell growth factor receptor Kit (Homo sapiens) (UniProt P10721); conditions: Compound concentration 1000.0 nM
[13] = molecular target: Ribosomal protein S6 kinase alpha-3 (Homo sapiens) (UniProt P51812); conditions: Compound concentration 1000.0 nM
[14] = molecular target: Phosphatidylinositol 4,5-bisphosphate 3-kinase catalytic subunit alpha isoform (Homo sapiens) (UniProt P42336); conditions: Compound concentration 1000.0 nM
[15] = molecular target: Cyclin-dependent kinase 7 (Homo sapiens) (UniProt P50613); conditions: Compound concentration 1000.0 nM
[16] = molecular target: Tyrosine-protein kinase Yes (Homo sapiens) (UniProt P07947); conditions: Compound concentration 1000.0 nM
[17] = molecular target: Serine/threonine-protein kinase Chk2 (Homo sapiens) (UniProt O96017); conditions: Compound concentration 1000.0 nM
[18] = tested on: Tyrosine-protein kinase ABL1 (Homo sapiens), P00519 [T315I]; conditions: Compound concentration 1000.0 nM
[19] = molecular target: Interleukin-1 receptor-associated kinase 1 (Homo sapiens) (UniProt P51617); conditions: Compound concentration 1000.0 nM
[20] = molecular target: 5-hydroxytryptamine receptor 2C (Homo sapiens) (UniProt P28335); conditions: Compound concentration 10.0 uM
[21] = molecular target: Tyrosine-protein kinase Fyn (Homo sapiens) (UniProt P06241); conditions: Compound concentration 1000.0 nM
[22] = molecular target: Ephrin type-A receptor 7 (Homo sapiens) (UniProt Q15375); conditions: Compound concentration 1000.0 nM
[23] = molecular target: Mitogen-activated protein kinase 1 (Homo sapiens) (UniProt P28482); conditions: Compound concentration 1000.0 nM
[24] = molecular target: Inhibitor of nuclear factor kappa-B kinase subunit alpha (Homo sapiens) (UniProt O15111); conditions: Compound concentration 1000.0 nM
[25] = molecular target: Ribosomal protein S6 kinase alpha-3 (Homo sapiens) (UniProt P51812); conditions: Compound concentration 1000.0 nM; remark: listed apart in the source
[26] = molecular target: Maternal embryonic leucine zipper kinase (Homo sapiens) (UniProt Q14680); conditions: Compound concentration 1000.0 nM
[27] = molecular target: Serine/threonine-protein kinase Nek10 (Homo sapiens) (UniProt Q6ZWH5); conditions: Compound concentration 1000.0 nM
[28] = molecular target: Serine/threonine-protein kinase VRK2 (Homo sapiens) (UniProt Q86Y07); conditions: Compound concentration 1000.0 nM
[29] = molecular target: Calcium/calmodulin-dependent protein kinase type 1D (Homo sapiens) (UniProt Q8IU85); conditions: Compound concentration 1000.0 nM
[30] = molecular target: Sigma non-opioid intracellular receptor 1 (Homo sapiens) (UniProt Q99720); conditions: Compound concentration 10.0 uM
[31] = molecular target: Phosphatidylinositol 4-phosphate 3-kinase C2 domain-containing subunit beta (Homo sapiens) (UniProt O00750); conditions: Compound concentration 1000.0 nM
[32] = molecular target: Cyclin-dependent kinase 4 (Homo sapiens) (UniProt P11802); conditions: Compound concentration 1000.0 nM
[33] = molecular target: Serine/threonine-protein kinase N2 (Homo sapiens) (UniProt Q16513); conditions: Compound concentration 1000.0 nM
[34] = molecular target: Cyclin-dependent kinase 16 (Homo sapiens) (UniProt Q00536); conditions: Compound concentration 1000.0 nM
[35] = molecular target: Ribosomal protein S6 kinase alpha-1 (Homo sapiens) (UniProt Q15418); conditions: Compound concentration 1000.0 nM
[36] = molecular target: Tyrosine-protein kinase Fgr (Homo sapiens) (UniProt P09769); conditions: Compound concentration 1000.0 nM
[37] = molecular target: Calcium/calmodulin-dependent protein kinase type II subunit alpha (Homo sapiens) (UniProt Q9UQM7); conditions: Compound concentration 1000.0 nM
[38] = molecular target: Vascular endothelial growth factor receptor 2 (Homo sapiens) (UniProt P35968); conditions: Compound concentration 1000.0 nM
[39] = molecular target: Serine/threonine-protein kinase NLK (Homo sapiens) (UniProt Q9UBE8); conditions: Compound concentration 1000.0 nM
[40] = molecular target: Ribosomal protein S6 kinase alpha-6 (Homo sapiens) (UniProt Q9UK32); conditions: Compound concentration 1000.0 nM
[41] = molecular target: Alpha-1B adrenergic receptor (Homo sapiens) (UniProt P35368); conditions: Compound concentration 10.0 uM
[42] = molecular target: Cyclin-dependent kinase 11A (Homo sapiens) (UniProt Q9UQ88); conditions: Compound concentration 1000.0 nM
[43] = molecular target: Tyrosine-protein kinase Mer (Homo sapiens) (UniProt Q12866); conditions: Compound concentration 1000.0 nM
[44] = molecular target: Dual specificity tyrosine-phosphorylation-regulated kinase 1A (Homo sapiens) (UniProt Q13627); conditions: Compound concentration 1000.0 nM
[45] = molecular target: Testis-specific serine/threonine-protein kinase 1 (Homo sapiens) (UniProt Q9BXA7); conditions: Compound concentration 1000.0 nM

Ribosomal protein S6 kinase alpha-3 (Homo sapiens), sequence (P51812 whole entry, canonical isoform): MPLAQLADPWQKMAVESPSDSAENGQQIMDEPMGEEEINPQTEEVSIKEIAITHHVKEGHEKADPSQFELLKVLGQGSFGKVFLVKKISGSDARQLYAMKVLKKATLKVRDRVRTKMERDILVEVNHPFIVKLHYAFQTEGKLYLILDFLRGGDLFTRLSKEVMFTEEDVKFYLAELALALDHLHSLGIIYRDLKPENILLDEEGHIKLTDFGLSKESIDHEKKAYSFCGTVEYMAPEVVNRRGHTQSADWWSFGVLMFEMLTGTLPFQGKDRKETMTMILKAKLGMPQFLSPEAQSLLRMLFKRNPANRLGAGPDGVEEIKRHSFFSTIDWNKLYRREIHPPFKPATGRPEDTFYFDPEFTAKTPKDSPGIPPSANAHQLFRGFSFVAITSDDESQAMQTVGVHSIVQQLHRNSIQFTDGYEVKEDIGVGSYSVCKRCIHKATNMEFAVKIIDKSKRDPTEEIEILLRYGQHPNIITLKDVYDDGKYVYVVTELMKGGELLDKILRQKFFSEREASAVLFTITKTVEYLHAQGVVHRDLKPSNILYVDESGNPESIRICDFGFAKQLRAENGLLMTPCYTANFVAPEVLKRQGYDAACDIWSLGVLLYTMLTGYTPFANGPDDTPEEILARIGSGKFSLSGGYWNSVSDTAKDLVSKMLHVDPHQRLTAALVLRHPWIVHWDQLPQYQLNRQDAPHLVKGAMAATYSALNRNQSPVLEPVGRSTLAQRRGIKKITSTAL
Tyrosine-protein kinase Yes (Homo sapiens), sequence (P07947 2-543 limits assumed): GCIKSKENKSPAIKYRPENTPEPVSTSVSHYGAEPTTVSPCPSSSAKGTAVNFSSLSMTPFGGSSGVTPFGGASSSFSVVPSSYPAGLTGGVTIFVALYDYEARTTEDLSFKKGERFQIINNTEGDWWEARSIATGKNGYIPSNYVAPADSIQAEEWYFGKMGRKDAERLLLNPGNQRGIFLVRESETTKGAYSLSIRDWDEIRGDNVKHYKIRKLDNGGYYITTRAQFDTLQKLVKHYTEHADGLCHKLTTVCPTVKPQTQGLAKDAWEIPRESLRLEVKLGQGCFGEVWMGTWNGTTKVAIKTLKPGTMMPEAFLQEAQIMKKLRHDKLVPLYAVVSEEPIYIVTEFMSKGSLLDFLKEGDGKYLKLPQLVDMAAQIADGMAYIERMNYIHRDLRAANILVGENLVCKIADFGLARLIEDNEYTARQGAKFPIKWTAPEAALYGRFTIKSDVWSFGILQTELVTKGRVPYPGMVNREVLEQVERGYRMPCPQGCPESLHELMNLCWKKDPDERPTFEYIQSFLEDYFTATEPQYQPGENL
Death-associated protein kinase 3 (Homo sapiens), sequence (O43293 whole entry, looked up): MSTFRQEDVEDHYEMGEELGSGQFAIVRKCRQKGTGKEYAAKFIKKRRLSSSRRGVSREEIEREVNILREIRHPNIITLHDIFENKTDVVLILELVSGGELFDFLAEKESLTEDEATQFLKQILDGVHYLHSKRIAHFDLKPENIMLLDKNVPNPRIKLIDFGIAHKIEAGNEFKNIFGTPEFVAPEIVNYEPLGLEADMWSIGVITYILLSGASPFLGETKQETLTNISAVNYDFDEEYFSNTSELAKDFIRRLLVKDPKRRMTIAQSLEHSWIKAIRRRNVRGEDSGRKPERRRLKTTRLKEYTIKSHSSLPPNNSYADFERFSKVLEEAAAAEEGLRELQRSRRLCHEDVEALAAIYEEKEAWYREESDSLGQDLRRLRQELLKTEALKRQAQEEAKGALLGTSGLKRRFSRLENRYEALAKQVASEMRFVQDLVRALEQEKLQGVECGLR
Serine/threonine-protein kinase VRK2 (Homo sapiens), sequence (Q86Y07 whole entry): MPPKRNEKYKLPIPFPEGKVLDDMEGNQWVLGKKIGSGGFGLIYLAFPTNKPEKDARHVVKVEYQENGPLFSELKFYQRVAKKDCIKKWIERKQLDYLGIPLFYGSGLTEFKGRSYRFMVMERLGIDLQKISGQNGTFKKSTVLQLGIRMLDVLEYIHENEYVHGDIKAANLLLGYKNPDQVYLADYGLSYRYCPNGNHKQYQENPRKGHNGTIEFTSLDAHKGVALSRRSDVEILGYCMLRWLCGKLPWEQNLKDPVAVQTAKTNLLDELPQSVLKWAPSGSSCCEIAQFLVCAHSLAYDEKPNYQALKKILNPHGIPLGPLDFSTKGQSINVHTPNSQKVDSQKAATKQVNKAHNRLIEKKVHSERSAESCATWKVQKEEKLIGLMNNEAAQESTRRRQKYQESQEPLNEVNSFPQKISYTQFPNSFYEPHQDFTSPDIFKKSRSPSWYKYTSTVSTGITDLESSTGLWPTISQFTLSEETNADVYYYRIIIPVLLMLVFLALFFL
5-hydroxytryptamine receptor 3A (Homo sapiens), sequence (P46098 whole entry): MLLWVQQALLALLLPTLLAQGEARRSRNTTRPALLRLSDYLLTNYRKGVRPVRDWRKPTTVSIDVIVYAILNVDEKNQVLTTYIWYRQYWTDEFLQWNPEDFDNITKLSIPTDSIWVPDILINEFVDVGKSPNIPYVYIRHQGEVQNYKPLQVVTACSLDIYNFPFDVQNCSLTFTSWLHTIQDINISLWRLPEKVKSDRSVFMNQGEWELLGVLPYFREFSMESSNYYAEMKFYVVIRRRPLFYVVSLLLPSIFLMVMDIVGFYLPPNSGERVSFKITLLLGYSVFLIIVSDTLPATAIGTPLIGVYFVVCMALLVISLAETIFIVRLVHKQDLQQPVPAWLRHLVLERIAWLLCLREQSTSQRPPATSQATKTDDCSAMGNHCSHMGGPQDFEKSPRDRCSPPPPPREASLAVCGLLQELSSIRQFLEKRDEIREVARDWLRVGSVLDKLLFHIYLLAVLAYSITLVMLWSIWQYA
Mitogen-activated protein kinase 1 (Homo sapiens), sequence (P28482 whole entry): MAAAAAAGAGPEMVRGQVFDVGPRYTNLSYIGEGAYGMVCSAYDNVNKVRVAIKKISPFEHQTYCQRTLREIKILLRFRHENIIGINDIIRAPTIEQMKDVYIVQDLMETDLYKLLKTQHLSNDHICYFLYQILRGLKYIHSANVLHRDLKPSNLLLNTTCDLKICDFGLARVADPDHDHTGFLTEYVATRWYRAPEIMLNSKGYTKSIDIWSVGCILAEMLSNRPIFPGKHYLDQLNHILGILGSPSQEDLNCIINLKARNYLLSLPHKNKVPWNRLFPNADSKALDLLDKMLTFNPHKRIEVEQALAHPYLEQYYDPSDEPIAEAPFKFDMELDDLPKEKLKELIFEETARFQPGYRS
Cyclin-dependent kinase 11A (Homo sapiens), sequence (Q9UQ88 whole entry): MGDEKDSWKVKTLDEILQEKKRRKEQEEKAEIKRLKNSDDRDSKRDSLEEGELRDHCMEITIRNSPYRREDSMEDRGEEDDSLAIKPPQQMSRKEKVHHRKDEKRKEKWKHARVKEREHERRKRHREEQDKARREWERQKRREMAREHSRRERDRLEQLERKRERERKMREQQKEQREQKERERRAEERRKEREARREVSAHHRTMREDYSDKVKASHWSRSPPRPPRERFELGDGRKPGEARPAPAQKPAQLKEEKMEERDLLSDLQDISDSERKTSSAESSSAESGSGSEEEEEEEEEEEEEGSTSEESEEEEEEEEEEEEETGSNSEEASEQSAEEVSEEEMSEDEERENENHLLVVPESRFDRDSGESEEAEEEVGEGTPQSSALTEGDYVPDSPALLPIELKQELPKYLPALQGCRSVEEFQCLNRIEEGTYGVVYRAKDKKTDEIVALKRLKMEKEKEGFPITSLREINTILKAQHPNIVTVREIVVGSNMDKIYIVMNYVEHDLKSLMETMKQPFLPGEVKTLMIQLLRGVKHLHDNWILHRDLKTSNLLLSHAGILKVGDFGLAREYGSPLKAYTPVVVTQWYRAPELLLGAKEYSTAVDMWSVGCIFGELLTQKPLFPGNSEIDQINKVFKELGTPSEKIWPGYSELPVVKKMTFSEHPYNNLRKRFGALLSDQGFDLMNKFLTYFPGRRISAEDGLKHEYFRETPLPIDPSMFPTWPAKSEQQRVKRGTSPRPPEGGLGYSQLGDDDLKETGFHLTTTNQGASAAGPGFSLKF
Tyrosine-protein kinase Fyn (Homo sapiens), sequence (P06241 2-537 limits assumed): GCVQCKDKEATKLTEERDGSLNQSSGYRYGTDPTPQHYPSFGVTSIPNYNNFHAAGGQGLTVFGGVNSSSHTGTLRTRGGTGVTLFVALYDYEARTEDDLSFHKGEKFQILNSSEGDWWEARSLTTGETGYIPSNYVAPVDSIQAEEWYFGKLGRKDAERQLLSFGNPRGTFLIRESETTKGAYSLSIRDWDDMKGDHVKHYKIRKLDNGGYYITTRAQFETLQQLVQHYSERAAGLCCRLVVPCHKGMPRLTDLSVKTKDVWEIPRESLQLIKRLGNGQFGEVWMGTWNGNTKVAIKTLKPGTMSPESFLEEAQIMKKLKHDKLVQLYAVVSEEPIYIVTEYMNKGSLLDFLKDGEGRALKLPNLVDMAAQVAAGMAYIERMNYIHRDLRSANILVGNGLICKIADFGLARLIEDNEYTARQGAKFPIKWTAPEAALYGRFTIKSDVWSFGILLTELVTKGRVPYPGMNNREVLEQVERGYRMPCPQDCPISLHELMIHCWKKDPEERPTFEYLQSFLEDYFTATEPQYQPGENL
Alpha-1B adrenergic receptor (Homo sapiens), sequence (P35368 whole entry): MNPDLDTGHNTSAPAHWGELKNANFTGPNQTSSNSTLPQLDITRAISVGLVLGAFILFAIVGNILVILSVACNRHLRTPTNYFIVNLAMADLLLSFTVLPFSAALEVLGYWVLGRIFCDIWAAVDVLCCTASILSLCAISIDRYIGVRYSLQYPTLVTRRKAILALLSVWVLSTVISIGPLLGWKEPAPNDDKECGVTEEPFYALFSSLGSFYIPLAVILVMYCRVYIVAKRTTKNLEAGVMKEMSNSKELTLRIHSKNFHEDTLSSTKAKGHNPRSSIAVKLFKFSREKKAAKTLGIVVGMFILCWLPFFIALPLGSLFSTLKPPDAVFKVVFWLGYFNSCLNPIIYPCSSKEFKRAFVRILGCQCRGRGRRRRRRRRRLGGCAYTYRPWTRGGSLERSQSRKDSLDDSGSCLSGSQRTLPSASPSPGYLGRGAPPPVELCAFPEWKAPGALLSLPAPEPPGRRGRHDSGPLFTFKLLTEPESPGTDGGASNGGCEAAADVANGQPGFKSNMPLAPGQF

Cc1nc(Cc2cccc(C(F)(F)F)c2)sc1-c1ccc(C(N)=O)nc1 [TP-024n]
inactive: residual activity [1] 100% | inhibition [2] 4.72% | residual activity [3] 85% | residual activity [4] 100% | residual activity [5] 66% | residual activity [6] 100% | residual activity [7] 92% | residual activity [8] 88% | residual activity [9] 100% | residual activity [10] 90% | residual activity [11] 100% | residual activity [12] 95% | residual activity [13] 99% | residual activity [14] 88% | residual activity [15] 90% | residual activity [16] 100% | residual activity [17] 100% | residual activity [18] 100% | residual activity [19] 100% | inhibition [20] 0.93% | residual activity [21] 100% | residual activity [22] 100% | residual activity [23] 95% | residual activity [24] 100% | residual activity [25] 100% | residual activity [26] 100% | residual activity [27] 100% | residual activity [28] 100% | residual activity [29] 94% | inhibition [30] 11.7% | residual activity [31] 82% | residual activity [32] 99% | residual activity [33] 91% | residual activity [34] 100% | residual activity [35] 79% | residual activity [36] 100% | residual activity [37] 91% | residual activity [38] 86% | residual activity [39] 100% | residual activity [40] 91% | inhibition [41] 24.6% | residual activity [42] 92% | residual activity [43] 98% | residual activity [44] 67% | residual activity [45] 54%

Cc1cc(-n2nc(Cc3cc(F)cc(C(F)(F)F)c3)nc2C)ccc1C(N)=O [TP-024]
inactive: residual activity [1] 100% | inhibition [2] 5.45% | residual activity [3] 100% | residual activity [4] 100% | residual activity [5] 73% | residual activity [6] 99% | residual activity [7] 92% | residual activity [8] 87% | residual activity [9] 100% | residual activity [10] 84% | residual activity [11] 100% | residual activity [12] 95% | residual activity [13] 100% | residual activity [14] 100% | residual activity [15] 100% | residual activity [16] 100% | residual activity [17] 100% | residual activity [18] 98% | residual activity [19] 100% | inhibition [20] -5.34% | residual activity [21] 100% | residual activity [22] 98% | residual activity [23] 100% | residual activity [24] 100% | residual activity [25] 95% | residual activity [26] 100% | residual activity [27] 100% | residual activity [28] 100% | residual activity [29] 96% | inhibition [30] 5.85% | residual activity [31] 87% | residual activity [32] 100% | residual activity [33] 100% | residual activity [34] 100% | residual activity [35] 100% | residual activity [36] 94% | residual activity [37] 99% | residual activity [38] 100% | residual activity [39] 100% | residual activity [40] 89% | inhibition [41] 6.84% | residual activity [42] 100% | residual activity [43] 100% | residual activity [44] 92% | residual activity [45] 90%
